Source: ChEMBL document CHEMBL1133261, “Synthesis and biological evaluation of 1,3,4-triaryl-3-pyrrolin-2-ones, a new class of selective cyclooxygenase-2 inhibitors” (Bioorg Med Chem Lett, 2000)

Biological target: Prostaglandin G/H synthase 1 (Homo sapiens, UniProt P23219)
Experiment: Biochemical index for Prostaglandin G/H synthase 1 measured as, thromboxane 2 (TXB2) levels following blood coagulation
Type: tissue-based

Sequence of Prostaglandin G/H synthase 1 (P23219 whole entry): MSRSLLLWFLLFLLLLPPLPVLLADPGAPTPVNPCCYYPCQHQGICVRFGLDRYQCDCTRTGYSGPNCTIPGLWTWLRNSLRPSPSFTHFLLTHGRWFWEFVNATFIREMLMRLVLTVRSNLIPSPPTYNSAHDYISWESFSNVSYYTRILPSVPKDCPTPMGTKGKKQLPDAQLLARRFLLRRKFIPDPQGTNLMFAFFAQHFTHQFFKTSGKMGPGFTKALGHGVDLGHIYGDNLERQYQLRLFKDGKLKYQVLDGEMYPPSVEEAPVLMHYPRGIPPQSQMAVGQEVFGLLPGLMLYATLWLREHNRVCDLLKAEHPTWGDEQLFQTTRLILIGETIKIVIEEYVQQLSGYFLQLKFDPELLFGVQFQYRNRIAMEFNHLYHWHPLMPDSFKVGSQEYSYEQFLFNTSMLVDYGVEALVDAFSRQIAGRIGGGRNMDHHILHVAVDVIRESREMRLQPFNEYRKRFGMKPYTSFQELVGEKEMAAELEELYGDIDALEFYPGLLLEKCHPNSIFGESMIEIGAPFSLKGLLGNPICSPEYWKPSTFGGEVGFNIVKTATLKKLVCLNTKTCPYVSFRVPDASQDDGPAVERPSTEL

IC50	Structure (SMILES)
3.7 µM	Cc1ccc(N2CC(c3ccc(S(C)(=O)=O)cc3)=C(c3ccc(F)cc3)C2=O)cc1
5.1 µM	CS(=O)(=O)c1ccc(C2=C(c3ccccc3)C(=O)N(c3ccc(C(F)(F)F)cc3)C2)cc1
2.7 µM	CS(=O)(=O)c1ccc(C2=C(c3ccc(F)cc3)C(=O)N(c3ccccc3)C2)cc1
10.8 µM	CS(=O)(=O)c1ccc(C2=C(c3ccccc3)C(=O)N(c3ccccc3F)C2)cc1
8.2 µM	CS(=O)(=O)c1ccc(C2=C(c3ccc(F)c(F)c3)C(=O)N(c3ccccc3)C2)cc1
2.68 µM	COc1ccc(C2=C(c3ccc(S(C)(=O)=O)cc3)CN(c3ccccc3)C2=O)cc1
2.5 µM	CS(=O)(=O)c1ccc(C2=C(c3ccc(F)cc3)C(=O)N(c3ccccc3F)C2)cc1
4 µM	COc1ccccc1N1CC(c2ccc(S(C)(=O)=O)cc2)=C(c2ccc(F)cc2)C1=O
2.5 µM	COc1ccc(C2=C(c3ccc(S(C)(=O)=O)cc3)CN(c3cccc(F)c3)C2=O)cc1
2.5 µM	COc1ccc(C2=C(c3ccc(S(C)(=O)=O)cc3)CN(c3ccc(F)cc3)C2=O)cc1
5.86 µM	CS(=O)(=O)c1ccc(C2=C(c3ccccc3)C(=O)N(c3ccc(F)cc3)C2)cc1
6.9 µM	Cc1ccc(N2CC(c3ccc(S(C)(=O)=O)cc3)=C(c3ccccc3)C2=O)cc1
7.2 µM	CS(=O)(=O)c1ccc(C2=C(c3ccc(F)cc3)C(=O)N(c3ccc(C(F)(F)F)cc3)C2)cc1
2.3 µM	COc1ccc(C2=C(c3ccc(S(C)(=O)=O)cc3)CN(c3ccccc3Cl)C2=O)cc1
9.8 µM	CS(=O)(=O)c1ccc(C2=C(c3ccccc3)C(=O)N(c3cccc(Cl)c3)C2)cc1
5.28 µM	COc1ccc(N2CC(c3ccc(S(C)(=O)=O)cc3)=C(c3ccc(F)cc3)C2=O)cc1
2.4 µM	CS(=O)(=O)c1ccc(C2=C(c3ccccc3)C(=O)N(c3ccccc3)C2)cc1
